From the NIST ThermoML archive (doi:10.1021/je050389b)
Numbers after ± are expanded uncertainties.

Assay: xn = mol fraction of the nth substance listed
Conditions: Liquid; for viscosity: 100.5 kPa; for mass density: 101 kPa

CCOC(=O)c1ccccc1 [ethyl benzoate] + CCO
Conditions	mass density, 288.15 K [kg/m3]	mass density, 298.15 K [kg/m3]	mass density, 308.15 K [kg/m3]	mass density, 318.15 K [kg/m3]	viscosity, 288.15 K [mPa·s]	viscosity, 298.15 K [mPa·s]	viscosity, 308.15 K [mPa·s]	viscosity, 318.15 K [mPa·s]
x1 = 0.05	824.59 ± 0.21	815.81 ± 0.22	806.92 ± 0.23	797.88 ± 0.23	1.342 ± 0.019	1.108 ± 0.017	0.926 ± 0.016	0.778 ± 0.015
x1 = 0.1	851.02 ± 0.2	842.08 ± 0.21	833.03 ± 0.21	823.84 ± 0.22	1.36 ± 0.019	1.123 ± 0.017	0.938 ± 0.016	0.793 ± 0.015
x1 = 0.15	874.07 ± 0.2	865.01 ± 0.2	855.84 ± 0.21	846.52 ± 0.21	1.388 ± 0.019	1.148 ± 0.018	0.959 ± 0.016	0.812 ± 0.015
x1 = 0.2	894.37 ± 0.19	885.22 ± 0.2	875.95 ± 0.2	866.54 ± 0.2	1.425 ± 0.02	1.176 ± 0.018	0.984 ± 0.016	0.833 ± 0.015
x1 = 0.25	912.35 ± 0.19	903.11 ± 0.19	893.77 ± 0.2	884.29 ± 0.2	1.465 ± 0.02	1.208 ± 0.018	1.012 ± 0.017	0.857 ± 0.016
x1 = 0.3	928.37 ± 0.18	919.07 ± 0.19	909.68 ± 0.19	900.15 ± 0.2	1.51 ± 0.02	1.244 ± 0.018	1.042 ± 0.017	0.881 ± 0.016
x1 = 0.35	942.79 ± 0.18	933.45 ± 0.19	924.02 ± 0.19	914.45 ± 0.19	1.557 ± 0.021	1.282 ± 0.018	1.072 ± 0.017	0.908 ± 0.016
x1 = 0.4	955.85 ± 0.18	946.47 ± 0.18	937 ± 0.19	927.41 ± 0.19	1.607 ± 0.021	1.321 ± 0.019	1.105 ± 0.017	0.935 ± 0.016
x1 = 0.45	967.71 ± 0.18	958.3 ± 0.18	948.81 ± 0.18	939.2 ± 0.19	1.661 ± 0.021	1.363 ± 0.019	1.138 ± 0.017	0.964 ± 0.016
x1 = 0.5	978.51 ± 0.18	969.07 ± 0.18	959.57 ± 0.18	949.95 ± 0.19	1.715 ± 0.022	1.405 ± 0.019	1.173 ± 0.018	0.993 ± 0.016
x1 = 0.55	988.43 ± 0.17	978.97 ± 0.17	969.46 ± 0.17	959.84 ± 0.17	1.773 ± 0.022	1.449 ± 0.02	1.209 ± 0.018	1.024 ± 0.017
x1 = 0.6	997.48 ± 0.16	988.07 ± 0.16	978.54 ± 0.16	968.93 ± 0.17	1.833 ± 0.023	1.496 ± 0.02	1.247 ± 0.018	1.055 ± 0.017
x1 = 0.65	1005.91 ± 0.16	996.46 ± 0.15	986.94 ± 0.16	977.35 ± 0.16	1.895 ± 0.023	1.544 ± 0.021	1.286 ± 0.019	1.089 ± 0.017
x1 = 0.7	1013.67 ± 0.16	1004.22 ± 0.15	994.7 ± 0.15	985.12 ± 0.15	1.959 ± 0.024	1.595 ± 0.021	1.326 ± 0.019	1.124 ± 0.017
x1 = 0.75	1020.94 ± 0.16	1011.5 ± 0.15	1002.01 ± 0.15	992.45 ± 0.15	2.028 ± 0.024	1.649 ± 0.021	1.37 ± 0.019	1.159 ± 0.018
x1 = 0.8	1027.63 ± 0.16	1018.2 ± 0.16	1008.72 ± 0.15	999.19 ± 0.15	2.099 ± 0.025	1.705 ± 0.022	1.416 ± 0.02	1.198 ± 0.018
x1 = 0.85	1033.99 ± 0.16	1024.57 ± 0.16	1015.13 ± 0.16	1005.64 ± 0.15	2.178 ± 0.026	1.767 ± 0.022	1.465 ± 0.02	1.241 ± 0.018
x1 = 0.9	1039.87 ± 0.17	1030.48 ± 0.16	1021.06 ± 0.16	1011.62 ± 0.15	2.267 ± 0.027	1.836 ± 0.023	1.521 ± 0.02	1.288 ± 0.019
x1 = 0.95	1045.45 ± 0.17	1036.09 ± 0.17	1026.72 ± 0.16	1017.33 ± 0.16	2.373 ± 0.027	1.917 ± 0.024	1.582 ± 0.021	1.335 ± 0.019
x1 = 1	1050.78 ± 0.17	1041.42 ± 0.17	1032.07 ± 0.17	1022.73 ± 0.16	2.444 ± 0.028	1.971 ± 0.024	1.624 ± 0.021	1.368 ± 0.019

CCCCCC(=O)OCC [ethyl hexanoate] + CCO
Conditions	mass density, 288.15 K [kg/m3]	mass density, 298.15 K [kg/m3]	mass density, 308.15 K [kg/m3]	mass density, 318.15 K [kg/m3]	viscosity, 288.15 K [mPa·s]	viscosity, 298.15 K [mPa·s]	viscosity, 308.15 K [mPa·s]	viscosity, 318.15 K [mPa·s]
x1 = 0.05	804.18 ± 0.23	795.44 ± 0.23	786.59 ± 0.24	777.58 ± 0.24	1.241 ± 0.018	1.031 ± 0.017	0.866 ± 0.016	0.732 ± 0.015
x1 = 0.1	812.99 ± 0.22	804.11 ± 0.23	795.12 ± 0.23	785.96 ± 0.24	1.182 ± 0.018	0.982 ± 0.016	0.829 ± 0.015	0.71 ± 0.015
x1 = 0.15	820.54 ± 0.22	811.53 ± 0.22	802.42 ± 0.23	793.14 ± 0.23	1.139 ± 0.017	0.948 ± 0.016	0.806 ± 0.015	0.691 ± 0.015
x1 = 0.2	827.14 ± 0.22	818.05 ± 0.22	808.85 ± 0.23	799.48 ± 0.23	1.106 ± 0.017	0.926 ± 0.016	0.789 ± 0.015	0.676 ± 0.014
x1 = 0.25	832.89 ± 0.21	823.72 ± 0.22	814.44 ± 0.22	805.01 ± 0.23	1.082 ± 0.017	0.909 ± 0.016	0.777 ± 0.015	0.667 ± 0.014
x1 = 0.3	837.94 ± 0.21	828.72 ± 0.22	819.38 ± 0.22	809.89 ± 0.23	1.062 ± 0.017	0.897 ± 0.016	0.769 ± 0.015	0.662 ± 0.014
x1 = 0.35	842.47 ± 0.21	833.2 ± 0.22	823.82 ± 0.22	814.29 ± 0.23	1.051 ± 0.017	0.889 ± 0.016	0.763 ± 0.015	0.659 ± 0.014
x1 = 0.4	846.5 ± 0.21	837.18 ± 0.22	827.76 ± 0.22	818.2 ± 0.23	1.045 ± 0.017	0.883 ± 0.016	0.759 ± 0.015	0.657 ± 0.014
x1 = 0.45	850.15 ± 0.21	840.82 ± 0.22	831.37 ± 0.22	821.8 ± 0.23	1.039 ± 0.017	0.88 ± 0.016	0.758 ± 0.015	0.657 ± 0.014
x1 = 0.5	853.47 ± 0.21	844.11 ± 0.22	834.63 ± 0.22	825.05 ± 0.23	1.037 ± 0.017	0.88 ± 0.016	0.759 ± 0.015	0.658 ± 0.014
x1 = 0.55	856.51 ± 0.21	847.12 ± 0.22	837.64 ± 0.22	828.05 ± 0.23	1.038 ± 0.017	0.882 ± 0.016	0.761 ± 0.015	0.662 ± 0.014
x1 = 0.6	859.28 ± 0.21	849.88 ± 0.22	840.39 ± 0.22	830.79 ± 0.23	1.039 ± 0.017	0.888 ± 0.016	0.765 ± 0.015	0.665 ± 0.014
x1 = 0.65	861.84 ± 0.21	852.43 ± 0.22	842.94 ± 0.22	833.34 ± 0.23	1.045 ± 0.017	0.892 ± 0.016	0.767 ± 0.015	0.668 ± 0.014
x1 = 0.7	864.22 ± 0.21	854.82 ± 0.22	845.33 ± 0.22	835.75 ± 0.23	1.048 ± 0.017	0.896 ± 0.016	0.773 ± 0.015	0.674 ± 0.014
x1 = 0.75	866.43 ± 0.21	857.02 ± 0.22	847.54 ± 0.22	837.97 ± 0.23	1.054 ± 0.017	0.902 ± 0.016	0.779 ± 0.015	0.68 ± 0.015
x1 = 0.8	868.48 ± 0.21	859.09 ± 0.22	849.63 ± 0.22	840.08 ± 0.23	1.064 ± 0.017	0.91 ± 0.016	0.786 ± 0.015	0.686 ± 0.015
x1 = 0.85	870.41 ± 0.22	861.04 ± 0.22	851.59 ± 0.22	842.07 ± 0.23	1.073 ± 0.017	0.919 ± 0.016	0.794 ± 0.015	0.694 ± 0.015
x1 = 0.9	872.22 ± 0.22	862.86 ± 0.22	853.45 ± 0.23	843.97 ± 0.23	1.086 ± 0.017	0.929 ± 0.016	0.803 ± 0.015	0.703 ± 0.015
x1 = 0.95	873.99 ± 0.22	864.66 ± 0.22	855.27 ± 0.23	845.83 ± 0.23	1.1 ± 0.017	0.94 ± 0.016	0.815 ± 0.015	0.712 ± 0.015
x1 = 1	875.64 ± 0.22	866.29 ± 0.22	856.91 ± 0.23	847.5 ± 0.23	1.102 ± 0.017	0.94 ± 0.016	0.814 ± 0.015	0.711 ± 0.015
